Test results as given in PubChem BioAssay AID248 (DTP/NCI, 2004).
Where “and” joins values, the source holds several entries; their conditions need not be identical. Identical values can stand only once. Toxic doses and inconclusive results are not listed. No stated cut-off is given here; in the data, active means T/C of 150% or more; inactive means T/C below 125%.

Test system: L1210 leukemia ip in BDF1 mice, survival T/C
Assay: NCI In Vivo Anticancer Drug Screen. Data for tumor model L1210 Leukemia (intraperitoneal) in B6D2F1 (BDF1) mice
Settings: endpoint: mean survival time, higher = longer survival
Outline: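 Mice bearing the transplanted tumor received compound or vehicle. Survival of the treated group was divided by that of the vehicle-treated control group to give the ratio.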

[1] = dose: 100.0 mg/kg/injection, schedule: Q04DX003 (ip), vehicle: Klucel (hydroxypropylcellulose) (HPC)
[2] = dose: 200.0 mg/kg/injection, schedule: Q04DX003 (ip), vehicle: Klucel (hydroxypropylcellulose) (HPC)
[3] = dose: 100.0 mg/kg/injection, schedule: Q04DX002 (ip), vehicle: Klucel (hydroxypropylcellulose) (HPC)
[4] = dose: 100.0 mg/kg/injection, schedule: Q01DX009 (ip), vehicle: saline with Tween-80
[5] = dose: 200.0 mg/kg/injection, schedule: Q01DX009 (ip), vehicle: saline with Tween-80
[6] = dose: 100.0 mg/kg/injection, schedule: Q04DX002 (ip), vehicle: saline with Tween-80
[7] = dose: 200.0 mg/kg/injection, schedule: Q04DX002 (ip), vehicle: saline with Tween-80
[8] = dose: 50.0 mg/kg/injection, schedule: Q01DX001 (ip), vehicle: saline
[9] = dose: 100.0 mg/kg/injection, schedule: Q01DX001 (ip), vehicle: saline
[10] = dose: 200.0 mg/kg/injection, schedule: Q01DX001 (ip), vehicle: saline
[11] = dose: 400.0 mg/kg/injection, schedule: Q01DX001 (ip), vehicle: saline
[12] = dose: 100.0 mg/kg/injection, schedule: Q01DX009 (ip), vehicle: Klucel (hydroxypropylcellulose) (HPC)
[13] = dose: 200.0 mg/kg/injection, schedule: Q01DX009 (ip), vehicle: Klucel (hydroxypropylcellulose) (HPC)
[14] = dose: 400.0 mg/kg/injection, schedule: Q01DX009 (ip), vehicle: Klucel (hydroxypropylcellulose) (HPC)
[15] = dose: 400.0 mg/kg/injection, schedule: Q04DX003 (ip), vehicle: Klucel (hydroxypropylcellulose) (HPC)
[16] = dose: 100.0 mg/kg/injection, schedule: Q01DX001 (ip), vehicle: Klucel (hydroxypropylcellulose) (HPC)
[17] = dose: 200.0 mg/kg/injection, schedule: Q01DX001 (ip), vehicle: Klucel (hydroxypropylcellulose) (HPC)
[18] = dose: 400.0 mg/kg/injection, schedule: Q01DX001 (ip), vehicle: Klucel (hydroxypropylcellulose) (HPC)

Measured: T/C

Clc1nc2nc(C(Cl)(Cl)Cl)[nH]c2nc1Cl
inactive: dose: 6.25 mg/kg/injection, schedule: Q01DX009 (ip), vehicle: Klucel (hydroxypropylcellulose) (HPC) 103 % of control | dose: 12.5 mg/kg/injection, schedule: Q01DX009 (ip), vehicle: Klucel (hydroxypropylcellulose) (HPC) 102 % of control | dose: 25.0 mg/kg/injection, schedule: Q01DX009 (ip), vehicle: Klucel (hydroxypropylcellulose) (HPC) 115 % of control | dose: 50.0 mg/kg/injection, schedule: Q01DX009 (ip), vehicle: Klucel (hydroxypropylcellulose) (HPC) 105 % of control | [1] 97 % of control | [2] 100 % of control

O=[N+]([O-])c1ccc(N/N=C(\c2ccccc2)C2CCC2)c([N+](=O)[O-])c1
inactive: dose: 50.0 mg/kg/injection, schedule: Q04DX002 (ip), vehicle: Klucel (hydroxypropylcellulose) (HPC) 99 % of control | [3] 96 % of control | dose: 200.0 mg/kg/injection, schedule: Q04DX002 (ip), vehicle: Klucel (hydroxypropylcellulose) (HPC) 96 % of control

CC(C)C1CCC(/C=C(\C#N)C2CCC([N+](=O)[O-])CC2)CC1 (configuration not stated)
inactive: dose: 100.0 mg/kg/injection, schedule: Q04DX002 (ip), vehicle: other 95 % of control | dose: 200.0 mg/kg/injection, schedule: Q04DX002 (ip), vehicle: other 95 % of control | dose: 400.0 mg/kg/injection, schedule: Q04DX002 (ip), vehicle: other 92 % of control

CS(=O)(=O)OCCN(CCOS(C)(=O)=O)c1ccc(N=O)cc1
inactive: dose: 0.08 mg/kg/injection, schedule: Q01DX Z (ip), vehicle: carboxymethylcellulose (CMC) 115 % of control | dose: 0.08 mg/kg/injection, schedule: Q01DX Z (ip), vehicle: saline 117 % of control | dose: 0.16 mg/kg/injection, schedule: Q01DX Z (ip), vehicle: carboxymethylcellulose (CMC) 123 % of control | dose: 0.16 mg/kg/injection, schedule: Q01DX Z (ip), vehicle: saline 122 % of control | dose: 0.63 mg/kg/injection, schedule: Q01DX Z (ip), vehicle: saline 120 % of control | dose: 1.25 mg/kg/injection, schedule: Q01DX Z (ip), vehicle: saline 110 % of control | dose: 1.28 mg/kg/injection, schedule: Q01DX Z (ip), vehicle: carboxymethylcellulose (CMC) 103 % of control | dose: 2.0 mg/kg/injection, schedule: Q01DX001 (ip), vehicle: saline 120 % of control | dose: 4.0 mg/kg/injection, schedule: Q01DX001 (ip), vehicle: saline 121 % of control

CCCCCCCCCCCCOC(N)=O
inactive: dose: 50.0 mg/kg/injection, schedule: Q01DX009 (ip), vehicle: saline with Tween-80 103 % of control | [4] 101 % of control | dose: 100.0 mg/kg/injection, schedule: Q04DX003 (ip), vehicle: saline with Tween-80 103 % of control | [5] 101 % of control | dose: 200.0 mg/kg/injection, schedule: Q04DX003 (ip), vehicle: saline with Tween-80 108 % of control | dose: 400.0 mg/kg/injection, schedule: Q04DX003 (ip), vehicle: saline with Tween-80 88 % of control

Cc1cncn1CC(=O)c1ccccc1
inactive: dose: 25.0 mg/kg/injection, schedule: Q01DX009 (ip), vehicle: saline 104 % of control and 105 % of control | dose: 25.0 mg/kg/injection, schedule: Q04DX002 (ip), vehicle: saline 101 % of control and 105 % of control | dose: 50.0 mg/kg/injection, schedule: Q01DX009 (ip), vehicle: saline 103 % of control and 104 % of control | dose: 50.0 mg/kg/injection, schedule: Q04DX002 (ip), vehicle: saline 101 % of control and 108 % of control | [3] 93 % of control | dose: 100.0 mg/kg/injection, schedule: Q04DX002 (ip), vehicle: saline 103 % of control

CCCCNc1nnc(N)s1
inactive: [6] 98 % of control | [7] 98 % of control

COc1ccc(C2NC(=O)NC2=O)cc1OC (configuration not stated)
inactive: dose: 25.0 mg/kg/injection, schedule: Q01DX009 (ip), vehicle: saline sonified 98 % of control | [8] 102 % of control | dose: 50.0 mg/kg/injection, schedule: Q01DX009 (ip), vehicle: saline sonified 106 % of control | [9] 105 % of control | dose: 100.0 mg/kg/injection, schedule: Q01DX009 (ip), vehicle: saline sonified 101 % of control | dose: 100.0 mg/kg/injection, schedule: Q04DX003 (ip), vehicle: saline 95 % of control | [10] 105 % of control | dose: 200.0 mg/kg/injection, schedule: Q04DX003 (ip), vehicle: saline 103 % of control | [11] 105 % of control | dose: 400.0 mg/kg/injection, schedule: Q04DX003 (ip), vehicle: saline 97 % of control

CCOC(=O)CC(=O)c1ccc(OCCOc2ccc(C(C)(C)CC(C)(C)C)cc2)cc1
inactive: [12] 95 % of control | [1] 89 % of control | [13] 97 % of control | [2] 96 % of control | [14] 87 % of control | [15] 86 % of control

COC(=O)C(CCSC)NC(=O)C(NC(=O)c1cnc2ccccc2n1)C(C)C (configuration not stated)
inactive: dose: 100.0 mg/kg/injection, schedule: Q01DX001 (ip), vehicle: carboxymethylcellulose (CMC) 91 % of control | dose: 200.0 mg/kg/injection, schedule: Q01DX001 (ip), vehicle: carboxymethylcellulose (CMC) 89 % of control | dose: 400.0 mg/kg/injection, schedule: Q01DX001 (ip), vehicle: carboxymethylcellulose (CMC) 96 % of control

CC(=O)Oc1c2n(c(=O)c3cocc13)Cc1cc3ccccc3nc1-2
inactive: [16] 92 % of control | [17] 94 % of control | [18] 90 % of control

CC(C)(C)c1cc(C#N)cc(Br)c1OP(=O)(Oc1c(Br)cc(C#N)cc1C(C)(C)C)c1ccccc1
inactive: [6] 95 % of control | [7] 92 % of control | dose: 400.0 mg/kg/injection, schedule: Q04DX002 (ip), vehicle: saline with Tween-80 97 % of control

NC(=O)C(=O)OCc1ccccc1
inactive: dose: 100.0 mg/kg/injection, schedule: Q01DX001 (ip), vehicle: steriod suspending solution 105 % of control | dose: 200.0 mg/kg/injection, schedule: Q01DX001 (ip), vehicle: steriod suspending solution 97 % of control | dose: 400.0 mg/kg/injection, schedule: Q01DX001 (ip), vehicle: steriod suspending solution 94 % of control

COC(=O)Nc1cccc2c1-c1ccccc1C2=O
inactive: dose: 50.0 mg/kg/injection, schedule: Q04DX003 (ip), vehicle: Klucel (hydroxypropylcellulose) (HPC) 95 % of control | [1] 95 % of control | [2] 100 % of control

Cc1c2c(cc3c1[nH]c1ccccc13)C(c1ccc(Cl)cc1)=NCC2
inactive: [4] 87 % of control | [5] 87 % of control | dose: 400.0 mg/kg/injection, schedule: Q01DX009 (ip), vehicle: saline with Tween-80 88 % of control

c1ccc(Nc2nnc(Nc3ccccc3)s2)cc1
inactive: [16] 92 % of control | [17] 103 % of control | [18] 106 % of control

Cc1ccc(S(=O)(=O)N(c2cc(C)ccc2C)c2ccccc2N)cc1
inactive: [8] 93 % of control | [9] 95 % of control | [10] 98 % of control | [11] 93 % of control

C=CCOc1ccccc1Cl
inactive: [12] 110 % of control | [1] 94 % of control | [13] 88 % of control | [2] 106 % of control | [14] 106 % of control | [15] 103 % of control

O=C1/C(=C\c2ccccc2)COC/C1=C\c1ccccc1
inactive: dose: 100.0 mg/kg/injection, schedule: Q01DX009 (ip), vehicle: saline 94 % of control | dose: 400.0 mg/kg/injection, schedule: Q01DX009 (ip), vehicle: saline 87 % of control

O=[N+]([O-])c1cc(S(=O)(=O)O)c(Nc2ccccc2)cc1NCCO
inactive: [1] 91 % of control | [2] 91 % of control | [15] 90 % of control
